The source of these data is patent publication US7557110B2, “Pyrazolo[1,5-A] pyrimidine derivatives” (Teijin Pharma Limited, priority 2003, dated 2009).

Structures are written as SMILES. A value given as a limit tells only on which side of the number the result lay.

One test has as its target MAPKAP-K2 (Homo sapiens, UniProt P49137). Briefly: MAPKAP-K2 enzyme activity inhibition (33P-ATP filter plate kinase assay). Further: key: +: active; ++: more active; +++: very active. The class given is biochemical. The conditions noted are these: MAPKAP-K2 inhibitory activity; assays conducted at typically 1-100 μM. As to the method:
[General Procedure for Measurement of MAPKAP-K2 Enzyme Activity Inhibition]
After conducting the reaction for 30 minutes at room temperature, an equivalent volume of a 200 mM phosphoric acid solution was added to suspend the reaction, and 90 μL of the reaction product was adsorbed onto a MultiScreen PH plate (Millipore) and rinsed with a 100 mM phosphoric acid solution. After drying the plate, 30 μL of MicroScint-O (Packard BioScience) was added, and the cpm was measured with a scintillation counter to determine the inhibiting activity. Substrate peptide is […]

A further test concerns the target CDK-2 (Homo sapiens, UniProt P24941). Briefly: CDK-2 enzyme activity inhibition (33P-ATP filter plate kinase assay). Type of test: biochemical. The conditions noted are these: read-out: CDK-2 inhibition IC50. The source says:
[General Procedure for Measurement of CDK-2 Enzyme Activity Inhibition]

MAPKAP-K2, sequence (P49137 whole entry): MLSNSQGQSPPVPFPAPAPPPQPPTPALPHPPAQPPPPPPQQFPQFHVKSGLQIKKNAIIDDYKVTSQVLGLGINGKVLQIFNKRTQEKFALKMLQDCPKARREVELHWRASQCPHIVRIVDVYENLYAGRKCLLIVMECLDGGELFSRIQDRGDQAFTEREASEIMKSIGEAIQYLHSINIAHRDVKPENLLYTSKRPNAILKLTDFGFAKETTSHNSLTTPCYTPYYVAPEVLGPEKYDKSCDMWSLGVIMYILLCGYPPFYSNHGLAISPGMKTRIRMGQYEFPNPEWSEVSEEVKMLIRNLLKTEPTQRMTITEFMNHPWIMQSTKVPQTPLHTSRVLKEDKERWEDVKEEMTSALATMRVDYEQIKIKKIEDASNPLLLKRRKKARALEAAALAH

With `CCOc1ccc(Nc2c(C)c(N(CC)C3CCCNC3)nc3ccnn23)cc1` (stereo not shown) [Compound 341], the “activity (efficacy against MAPKAP-K2)” value on MAPKAP-K2 was “+”. Besides, the IC50 at CDK-2 was below 100 µM.
The matching figures for `Cc1c(N[C@H]2CC[C@H](N)CC2)nc2ccnn2c1Nc1ccc(-c2ccc(F)cc2)cc1` [Compound 303]: “+++” and below 100 µM.
In the same order, the values of `Cc1c(N[C@H]2CC[C@H](N)CC2)nc2ccnn2c1Nc1ccc(-c2ccccc2)cc1` [Compound 284, {5-[(trans-4-aminocyclohexyl)amino]-6-methyl(pyrazolo[1,5-a]pyrimidin-7-yl)}(4-phenylphenyl)amine] are “+++” and below 100 µM.
With `Cc1c(NC2CCCNC2)nc2ccnn2c1Nc1ccc(I)cc1` (stereo not shown) [Compound 105], the “activity (efficacy against MAPKAP-K2)” value on MAPKAP-K2 is recorded as “+++”. For the same molecule, on CDK-2, the IC50 is below 100 µM.
The matching figures for `Cc1cscc1-c1ccc(Nc2c(C)c(N[C@H]3CC[C@H](N)CC3)nc3ccnn23)cc1` [Compound 421]: “+++” and below 100 µM.
Take `Cc1c(N[C@H]2CC[C@H](N)CC2)nc2ccnn2c1Nc1ccc(OCc2ccc(Cl)cc2)cc1` [Compound 211]: the “activity (efficacy against MAPKAP-K2)” value on MAPKAP-K2 is given as “+++”. In addition, the half-maximal inhibitory concentration (IC50) at CDK-2 was below 100 µM.
In the case of `Cc1c(N[C@H]2CC[C@H](N)CC2)nc2ccnn2c1Nc1ccc(-c2cccnc2)cc1` [Compound 300], the “activity (efficacy against MAPKAP-K2)” value at MAPKAP-K2 is given as “+++”. Further, the IC50 on CDK-2 is below 100 µM.
In the same order, the values of `Cc1c(N[C@H]2CC[C@H](N)CC2)nc2ccnn2c1Nc1ccc(-c2cccc(N)c2)cc1` [Compound 288] are “+++” and below 100 µM.
Take `N#Cc1cnn2c(Nc3ccccc3Cl)cc(N[C@H]3CC[C@H](N)CC3)nc12` [Compound 170]: the “activity (efficacy against MAPKAP-K2)” value on MAPKAP-K2 is “+++”. Besides, on CDK-2, the half-inhibitory concentration (IC50) is below 100 µM.
On to `Cc1c(N[C@H]2CC[C@H](N)CC2)nc2ccnn2c1Nc1ccc(-c2cc3ccccc3[nH]2)cc1` [Compound 423], for which the “activity (efficacy against MAPKAP-K2)” value on MAPKAP-K2 is reported as “+++”. In addition, the IC50 on CDK-2 was below 100 µM.
Turning to `CCOc1ccc(-c2ccc(Nc3c(C)c(N[C@H]4CC[C@H](N)CC4)nc4ccnn34)cc2)cc1` [Compound 356], on MAPKAP-K2, the “activity (efficacy against MAPKAP-K2)” value is given as “+++”. In addition, the concentration for half-maximal inhibition (IC50) at CDK-2 was below 100 µM.
Regarding `CCOc1ccc(Nc2c(C)c(N[C@@H]3CN[C@@H](C(=O)O)C3)nc3ccnn23)cc1` [Compound 772], at MAPKAP-K2, the “activity (efficacy against MAPKAP-K2)” value was “++”. The IC50 on CDK-2 is below 100 µM.
With `Cc1c(N[C@H]2CC[C@H](N)CC2)nc2ccnn2c1Nc1ccc(OC2CCN(C)CC2)cc1` [Compound 217], on MAPKAP-K2, the “activity (efficacy against MAPKAP-K2)” value is reported as “++”. Further, the IC50 on CDK-2 is below 100 µM.
For the molecule `Cc1c(N[C@H]2CC[C@H](N)CC2)nc2ccnn2c1Nc1ccc(-c2cccc(F)c2)cc1` [Compound 304], the “activity (efficacy against MAPKAP-K2)” value on MAPKAP-K2 is “+++”. Further, the half-maximal inhibitory concentration (IC50) at CDK-2 was below 100 µM.
In the case of `Cc1c(N[C@H]2CC[C@H](N)CC2)nc2ccnn2c1Nc1ccc(OC2CCOCC2)cc1` [Compound 219], the “activity (efficacy against MAPKAP-K2)” value on MAPKAP-K2 was “+++”. The 50% inhibitory concentration (IC50) on CDK-2 is below 100 µM.
As to `Cc1c(N[C@H]2CC[C@H](N)CC2)nc2ccnn2c1Nc1ccc(OC(F)(F)F)c(Cl)c1` [Compound 785], at MAPKAP-K2, the “activity (efficacy against MAPKAP-K2)” value is “+++”. The IC50 at CDK-2 was below 100 µM.
The matching figures for `Cc1c(NC2CCC(N)CC2)nc2ccnn2c1Nc1ccc(OCC2CCCN(C)C2)cc1` (stereo not shown) [Compound 226]: “+++” and below 100 µM.
Turning to `Cc1c(N[C@H]2CC[C@H](N)CC2)nc2ccnn2c1Nc1cccc(OCc2ccc(Cl)cc2)c1` [Compound 248], the “activity (efficacy against MAPKAP-K2)” value at MAPKAP-K2 was “++”. Besides, the IC50 on CDK-2 was below 100 µM.
The matching figures for `Cc1c(N[C@H]2CC[C@H](N)CC2)nc2ccnn2c1Nc1ccc(OCc2ccccc2Cl)cc1` [Compound 213]: “+++” and below 100 µM.
In the case of `CCc1c(N[C@H]2CC[C@H](N)CC2)nc2ccnn2c1Nc1ccccc1OC` [Compound 42], the “activity (efficacy against MAPKAP-K2)” value at MAPKAP-K2 is recorded as “++”. Moreover, the half-inhibitory concentration (IC50) at CDK-2 was below 100 µM.
The matching figures for `CCOc1ccc(Nc2c(C)c(N[C@@H]3CCN(Cc4ccccc4)C3)nc3ccnn23)cc1` [Compound 418]: “++” and below 100 µM.
`Cc1c(N[C@H]2CC[C@H](N)CC2)nc2ccnn2c1Nc1ccc(OC(F)(F)F)cc1` [Compound 179]: the “activity (efficacy against MAPKAP-K2)” value at MAPKAP-K2 is “+++”. The IC50 on CDK-2 is below 100 µM.
For the molecule `COCc1cccc(-c2ccc(Nc3c(C)c(N[C@H]4CC[C@H](N)CC4)nc4ccnn34)cc2)c1` [Compound 354], the “activity (efficacy against MAPKAP-K2)” value at MAPKAP-K2 is “+++”. On CDK-2, the half-maximal inhibitory concentration (IC50) was below 100 µM.
For the molecule `Cc1c(N[C@H]2CC[C@H](N)CC2)nc2c(F)cnn2c1Nc1ccc(I)cc1` [Compound 441, {5-[(trans-4-aminocyclohexyl)amino]-3-fluoro-6-methyl(pyrazolo[1,5-a]pyrimidin-7-yl)}(4-iodophenyl)amine], the “activity (efficacy against MAPKAP-K2)” value at MAPKAP-K2 is recorded as “+++”. In addition, on CDK-2, the IC50 was below 100 µM.
The matching figures for `Cc1c(N[C@H]2CC[C@H](N)CC2)nc2ccnn2c1Nc1ccc(-c2ccccc2C(F)(F)F)cc1` [Compound 323]: “++” and below 100 µM.
With `CCS(=O)(=O)c1ccc(-c2ccc(Nc3c(C)c(N[C@H]4CC[C@H](N)CC4)nc4ccnn34)cc2)cc1` [Compound 351], the “activity (efficacy against MAPKAP-K2)” value on MAPKAP-K2 was “+++”. Besides, the IC50 on CDK-2 is below 100 µM.
Regarding `Cc1c(NC2CCC(N)CC2)nc2ccnn2c1Nc1ccc(OCCC2CCCCN2)cc1` (stereo not shown) [Compound 231], the “activity (efficacy against MAPKAP-K2)” value at MAPKAP-K2 is given as “++”. On CDK-2, the concentration for half-maximal inhibition (IC50) is below 100 µM.
Take `Cc1c(N[C@H]2CC[C@H](N)CC2)nc2ccnn2c1Nc1ccc(-c2cccc(CO)c2)cc1` [Compound 353]: the “activity (efficacy against MAPKAP-K2)” value at MAPKAP-K2 was “+++”. The IC50 on CDK-2 was below 100 µM.
For `CCOc1cccc(Nc2c(C)c(N[C@H]3CC[C@H](N)CC3)nc3ccnn23)c1` [Compound 81], the “activity (efficacy against MAPKAP-K2)” value on MAPKAP-K2 is recorded as “+++”. Also, the IC50 on CDK-2 was below 100 µM.
For the molecule `CCCNc1c(C)c(N[C@H]2CC[C@H](N)CC2)nc2ccnn12` [Compound 87], the “activity (efficacy against MAPKAP-K2)” value on MAPKAP-K2 is “++”. In addition, the 50% inhibitory concentration (IC50) at CDK-2 was below 100 µM.
`Cc1c(NC2CCCNC2)nc2ccnn2c1Nc1ccc(-c2cccc(N)c2)cc1` (stereo not shown) [Compound 444]: the “activity (efficacy against MAPKAP-K2)” value at MAPKAP-K2 was “+++”. For the same molecule, at CDK-2, the 50% inhibitory concentration (IC50) was below 100 µM.
For the molecule `CCOC(=O)c1cccc(Nc2c(C)c(N[C@H]3CC[C@H](N)CC3)nc3ccnn23)c1` [Compound 68], at MAPKAP-K2, the “activity (efficacy against MAPKAP-K2)” value was “+++”. For the same molecule, the concentration for half-maximal inhibition (IC50) on CDK-2 was below 100 µM.
As for `Cc1c(N[C@H]2CC[C@H](N)CC2)nc2ccnn2c1Nc1ccc(C(=O)c2ccccc2)cc1` [Compound 778], the “activity (efficacy against MAPKAP-K2)” value on MAPKAP-K2 is recorded as “+++”. On CDK-2, the half-maximal inhibitory concentration (IC50) is below 100 µM.
As for `Cc1c(N[C@H]2CC[C@H](N)CC2)nc2ccnn2c1Nc1ccc(-c2cccc(O)c2)cc1` [Compound 307], the “activity (efficacy against MAPKAP-K2)” value at MAPKAP-K2 was “+++”. The IC50 at CDK-2 was below 100 µM.
Consider `Cc1c(N[C@H]2CC[C@H](N)CC2)nc2ccnn2c1Nc1ccc(-c2ccccc2F)cc1` [Compound 305], for which, at MAPKAP-K2, the “activity (efficacy against MAPKAP-K2)” value is listed as “+++”. For the same molecule, the half-inhibitory concentration (IC50) at CDK-2 was below 100 µM.
`CCOc1ccc(Nc2c(C)c(N[C@@H]3CCNC3)nc3ccnn23)cc1` [Compound 412]: the “activity (efficacy against MAPKAP-K2)” value at MAPKAP-K2 is recorded as “++”. Also, the IC50 at CDK-2 was below 100 µM.
In the same order, the values of `Cc1c(N[C@H]2CC[C@H](N)CC2)nc2ccnn2c1Nc1ccc(OCCC2CCCCC2)cc1` [Compound 215] are “++” and below 100 µM.
Regarding `Cc1c(N[C@H]2CC[C@H](N)CC2)nc2ccnn2c1Nc1ccc(-c2ccc(C(F)(F)F)cc2)cc1` [Compound 350], at MAPKAP-K2, the “activity (efficacy against MAPKAP-K2)” value is listed as “+++”. Also, the IC50 on CDK-2 was below 100 µM.
With `Cc1c(N[C@H]2CC[C@H](N)CC2)nc2ccnn2c1Nc1ccc(OCCc2ccncc2)cc1` [Compound 228], the “activity (efficacy against MAPKAP-K2)” value on MAPKAP-K2 is reported as “+++”. The IC50 at CDK-2 was below 100 µM.
Regarding `Cc1c(NC2CCC(N)CC2)nc2ccnn2c1Nc1ccc(OCC2CCCO2)cc1` (stereo not shown) [Compound 256], at MAPKAP-K2, the “activity (efficacy against MAPKAP-K2)” value was “+++”. Besides, the IC50 at CDK-2 was below 100 µM.
Consider `Cc1c(N[C@H]2CC[C@H](N)CC2)nc2ccnn2c1Nc1ccc(-c2cccc(OC(F)(F)F)c2)cc1` [Compound 316], for which the “activity (efficacy against MAPKAP-K2)” value on MAPKAP-K2 was “+++”. Also, the IC50 on CDK-2 is below 100 µM.
In the same order, the values of `Cc1c(NC2CCC(N)CC2)nc2ccnn2c1Nc1ccc(OC2CCNC2)cc1` (stereo not shown) [Compound 229] are “+++” and below 100 µM.
In the same order, the values of `Cc1c(N[C@H]2CC[C@H](N)CC2)nc2ccnn2c1Nc1ccc(OCc2ccc(N)cc2)cc1` [Compound 204] are “++” and below 100 µM.
Take `CCc1c(N[C@H]2CC[C@H](N)CC2)nc2ccnn2c1Nc1cccc(C)c1` [Compound 72]: on MAPKAP-K2, the “activity (efficacy against MAPKAP-K2)” value is on record as “+++”. Besides, at CDK-2, the IC50 was below 100 µM.
On to `Cc1c(N[C@H]2CC[C@H](N)CC2)nc2ccnn2c1Nc1ccc(OCCCl)cc1` [Compound 199], for which the “activity (efficacy against MAPKAP-K2)” value on MAPKAP-K2 is reported as “+++”. The IC50 at CDK-2 is below 100 µM.
`Cc1ccc(Nc2c(C)c(NC3CCCNC3)nc3ccnn23)cc1C` (stereo not shown) [Compound 89]: on MAPKAP-K2, the “activity (efficacy against MAPKAP-K2)” value was “+++”. On CDK-2, the IC50 was below 100 µM.
`COc1c(N[C@H]2CC[C@H](N)CC2)nc2ccnn2c1Nc1ccc(F)c(Cl)c1` [Compound 172]: the “activity (efficacy against MAPKAP-K2)” value at MAPKAP-K2 is recorded as “++”. Moreover, the half-inhibitory concentration (IC50) at CDK-2 is below 100 µM.
